Columns and labels:
NF-κB/p65 = target: T1, NF-κB/p65 (Homo sapiens, UniProt Q04206); test: Gel electrophoretic mobility shift assay (EMSA) with HeLa nuclear extracts; format: binding; conditions: nuclear extracts from Hela cells exposed to TNFα (200 u/ml)
T1 construct: 10 μg of nuclear extracts with 0.3 ng of ^32P-labeled synthetic double-stranded oligodeoxynucleotides; endogenous in cells; host or cells: HeLa cells treated with TNFα (nuclear extract)
Method: Nuclear extracts were prepared from HeLa cells treated with 200 units/ml of TNFα for 15 min. Oligodeoxynucleotides spanning the NF-κB binding site within the MGMT promoter (also denoted by SEQ ID NO. 4 and 5), with or without a C-G mutation (also denoted by SEQ ID NO. 6 and 7) or the consensus NF-κB site from HIV LTR (SEQ ID NO. 3, also shown in FIG. 1B), were end-labeled by a fill-in reaction using the Klenow fragment of DNA polymerase (New England Biolabs, Beverly, Mass.). DNA binding reactions were performed by incubation on ice for 15 min of 10 μg of nuclear extracts with 0.3 ng of ^32P-labeled synthetic double-stranded oligodeoxynucleotides in the presence of 10 mM Hepes, pH 7.9, 10% glycerol, 50 mM KCl, 5 mM MgCl2, 5 mM dithiothreitol, 2 μg of poly (dI·dC), and 0.1% Nonidet P-40. Competitor oligonucleotides were incubated in 100-fold molar excess and preincubated in the reaction mixtures for 10 min before addition of the radiolabeled probe. For supershift experiments, 1 μl of p65 antibody (MAB16200, Chemicon International Inc., Temecula, Calif.) was added during the preincubation period.
To explore whether the NF-κB sites found within the MGMT promoter actually bind NF-κB, the inventors next performed an EMSA analysis of nuclear extracts from HeLa cells treated with TNFα and with labeled DNA fragments spanning the region containing the NF-κB motif. As shown by FIG. 1C, this process generated a nuclear binding factor specific for these regions (FIG. 1C, lanes 5 and 9), of the same size as the complex attached to the consensus HIV-κB site as also denoted by SEQ ID NO. 3 (FIG. 1C, lane 2) as indicated by the black arrows. […] Binding specificity was confirmed by competition with cold HIV-κB oligonucleotide. […] This confirmed that p65 binds to both NF-κB putative sites. The upper band in lane 9 (FIG. 1C) is not the same size as the NF-κB complex attached to the canonical HIV-κB oligonucleotide (FIG. 1C, lane 2). It was neither shifted when incubated with NF-κB/p65 antibodies (lane 10), nor abolished in the presence of unlabeled HIV-κB probe (FIG. 1C, lane 11). Based on the finding that the MGMT-κB2 binding site overlaps the Sp1 site, the inventors speculate that this complex may further contain Sp1. This speculation is also supported by its size, which is the same as that of the complex attached to the Sp1 oligonucleotide (FIG. 1C, lane 1).

T98MG gliomas cell line = format: cell-based, human; conditions: 2.5 mM TMZ without LMODN
Method: T98MG glioma cell line cells were treated with increasing doses of the decoy ODN's of the invention. Double stranded ODNs (30mers), corresponding to MGMT-κB1 binding site (as also denoted by SEQ. ID. NO. 1), and control ODNs were purchased from IDT. Each strand of ODN was thirty-mers and contained six LNA nucleotides. The following ODNs were used: MGMT-kB1forward: 5′---+T+AATGGGG+ACTTTAC GGG+[…]+A+T---3′ (as also denoted by SEQ. ID. NO. 40) with or without the 5′ end labeled with carboxyfluorescein-5-succimidyl ester (FAM). The MGMT-kB1 reverse ODN: 5′---+A+TTCTGTA+[…]+[…]+T+A---3′ as also denoted by SEQ ID NO. 41). Control forward: 5′---+T+AG TGT CG+A CTT CAC TCT+ACT TGA CAG A+A+T---3′ (as also denoted by SEQ ID NO. 42), control reverse: 5′---+A+TT CTG TC+A AGT AGA GTG+AAG TCG ACA C+T+A---3′ as also denoted by SEQ ID NO. 43). It should be noted that (+designated as nucleotide containing an LNA modification).
The viability of the cells was tested 24-48 hrs later by CellTiter-Blue assay (Promega®). The assay was carried out according to the supplier's instructions. Briefly, the assay is based on the ability of living cells to convert a redox dye (resazurin) into a fluorescent end product (resorufin). Cell viability estimation is done by measuring the fluorescent intensity of resorufin (ex. 560 nm, em. 590 nm) using a fluorescent microplate reader.
The inventors next tested the potential of the decoy LMODN molecules of the invention to sensitize tumor cells to alkylating agents and thereby improve their efficacy as anti-cancerous treatment. Therefore, several human cancer cell lines were treated with alkylating agents with increasing doses of MGMT-kB1-ODN followed by cell viability tests. First, the sensitivity of each cell line to several alkylating agents, mainly temozolomide (TMZ) and BCNU was calibrated. At 24 hrs following sowing, cells were exposed for two hours to increasing concentrations of the alkylating agent and viability of the cells was tested 24-48 hrs later by CellTiter-Blue assay (Promega®). To test the potential of MGMT-kB1-LMODN to sensitize tumor cells to alkylating agents in-vitro, increasing doses of LMODNs MGMT-kB1 forward and reverse as denoted by SEQ ID NO. 40 and 41, respectively), with or without the 5′ end labeled with carboxyfluorescein-5-succimidyl ester (FAM), as well as the control LMODNs (as denoted by SEQ ID NO. 42 and 43), were liposomally introduced (Lipofectamine 2000, Invitrogen) to various tumor cancer cells. Twenty four hours later, cells were treated with the different doses of alkylating agents as calibrated before.
FIG. 9 represents an example of T98MG gliomas cell line sensitized to alkylating agents in response to treatment with the LMODN's of the invention. […]

[1] = tested on: MGMT-kB1-Luc reporter construct induced by NF-κB/p65; test: Luciferase reporter assay, MGMT-kB1-Luc co-transfected with NF-κB/p65; format: cell-based, human
Method: Transient transfections were performed in 6-well plates, using the FuGene6 transfection reagent (Roche Diagnostics GmbH, Mannheim, Germany), according to the manufacturer's instructions. U87MG, T98G, and A172 cells were transfected with pNF-κB-Luc reporter Vector (Clontech, Palo Alto, Calif.), while RG2 and U87MG were transfected with MGMT-Luc [construct p-954/+24 mL [Biswas T. et al. Oncogene 18:525-32 (1999)] kindly provided by Sankar Mitra] (1 μg/well). CMVβ-galactosidase expression vector (CMVβgal-Clonthech) was included (0.1 μg/well) in each transfection to normalize transfection efficiency. HEK293 cells were transfected with CMVβgal alone or along with one or more of the following plasmids: CMVp65, CMVΔNIκB, CMVp50, CMVcJun. CMVp65 and CMVΔNIκB plasmids were kindly provided by Prof. Yinon. Ben-Neriah (The Hebrew University, Jerusalem, Israel), CMVp50 and CMVcJun were kindly provided by Dr. Danielle Melloul (Hadassah Hebrew University Medical Center, Jerusalem, Israel).
At 24 hrs following transfection, the cells were lysed for 15 min on ice with 200 μl of luciferase lysis buffer (Promega, Madison, Wis.). Luciferase assays were carried out using a Promega assay kit and a luminometer (EG&G Berthold, Bad Wildbad, Germany). The activity was normalized to β-galactosidase activity (Promega) and plotted as the mean±s.d. of triplicates from a representative experiment.
For the cloning of the MGMT-luc constructs the reporter vector p-TA-Luc (Clontech, Palo Alto, USA) was used. The plasmid contains TATA box motif upstream to a luciferase reporter gene. A double stranded DNA corresponding to four repeats of each sequence as indicated by FIG. 8A (also denoted by SEQ ID NO. 44, 45, 46 and 47), was synthesis by syntezza LTD and ligated upstream to the TATA box.
To test the activity of these sites, several luciferase reporter genes bearing four copies of either intact or mutant sequence, of each of the two NF-κB sites (NF-κB1 and NF-κB2), were constructed as indicated in Experimental procedures. […] An inhibition of approximately 50% was observed using 100 nM ODN. Negative control using the CMVΔNIκB (ΔN)-Luc construct as well as positive control using the canonical HIV-κB-Luc reporter construct, confirmed validity of the data.
Induction of over expression of NF-κB in HEK 293T cells by transfection of a CMV-NF-κB/p65 generated a 50-fold elevation in luciferase expression driven by the Co-transfected reporter construct MGMT-kB1-Luc. […] Inhibition of approximately 90% was induced by 150 nM LMODN. […] No inhibition was detected when a mutant LMODN was introduced into the cells, indicating the specificity of MGMT-kB1-LMODN (of SEQ ID NO. 40 and 41). […] 3 (HIV-κB-Luc construct).

T1 sequence (Q04206 whole entry): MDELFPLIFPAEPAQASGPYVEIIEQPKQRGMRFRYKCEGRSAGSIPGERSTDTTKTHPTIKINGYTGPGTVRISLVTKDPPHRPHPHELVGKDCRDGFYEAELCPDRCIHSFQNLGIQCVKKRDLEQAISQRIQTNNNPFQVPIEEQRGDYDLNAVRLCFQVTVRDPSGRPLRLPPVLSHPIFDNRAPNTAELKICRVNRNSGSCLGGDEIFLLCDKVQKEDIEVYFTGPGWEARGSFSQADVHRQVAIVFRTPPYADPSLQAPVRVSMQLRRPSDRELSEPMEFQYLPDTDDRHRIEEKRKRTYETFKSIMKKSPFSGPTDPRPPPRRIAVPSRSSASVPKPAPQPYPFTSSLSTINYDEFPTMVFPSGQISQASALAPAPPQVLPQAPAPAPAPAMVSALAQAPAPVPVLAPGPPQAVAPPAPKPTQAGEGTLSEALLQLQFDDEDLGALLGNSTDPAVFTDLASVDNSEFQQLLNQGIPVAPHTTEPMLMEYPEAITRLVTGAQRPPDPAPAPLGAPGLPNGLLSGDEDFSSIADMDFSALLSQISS

| Compound | binding of NF-κB in nuclear extract to 32P-labeled probe (in words) (NF-κB/p65) | further results |
| --- | --- | --- |
| HIV-κB: consensus NF-κB site from HIV LTR, control probe (DNA GGCTTCAGAGGGGACTTTCCGAGA; labeled probe, label not given here, further chemistry not given here; listed as Homo sapiens) | formation of complexes of a similar size |  |
| MGMT-κB-1: EMSA oligodeoxynucleotide probe spanning the NF-κB binding site MGMT-κB1 within the MGMT promoter (DNA TGATGGCTTCTGTAAAGTCCCCATCTCCAAATAAGGTCAC; DNA, backbone not given here; further chemistry not fully specified; listed as Homo sapiens) | formation of complexes of a similar size |  |
| Cn1nnc2c(C(N)=O)ncn2c1=O [TMZ, temozolomide] |  | live cells (T98MG gliomas cell line): 60% |
| SEQ ID NO. 36 and 37: double stranded LNA modified ODN decoy of MGMT-kB1 site; forward SEQ ID NO. 36, reverse SEQ ID NO. 37 (sense TAAGAGGGACTTTACGGGACTTTACTACAT; antisense ATGTAGTAAGTCCCGTAAAGTCCCTCTTA; LNA modifications, chemistry not fully specified; listed as Homo sapiens) [double stranded LNA modified ODN decoy of MGMT-kB1 site; 37] |  | inhibition of luciferase activity ([1]; 100 nM ODN, HEK293T, MGMT-κB1 reporter construct + NF-κB/p65 (FIG. 7)): approximately 50%; effect on luciferase activity driven by MGMT-kB1 reporter (in words) ([1]; HEK293T co-transfected with MGMT-kB1 reporter and NF-κB/p65): decreased the luciferase activity in a dose-dependent manner |
| MGMT-κB2 Mut: MGMT-κB2 oligonucleotide with mutated site (C-to-G substitution) (DNA GGCGGGAACACGGCGCCCCGCCCG; DNA, backbone not given here; further chemistry not fully specified; listed as Homo sapiens) | Specific binding was not observed |  |
| MGMT-κB1 Mut: MGMT-κB1 oligonucleotide with mutated site (C-to-G substitution) (DNA TGATGGCTTCTGTAAAGTCGGCATCTCCAAATAAGGTCAC; DNA, backbone not given here; further chemistry not fully specified; listed as Homo sapiens) | Specific binding was not observed |  |
| MGMT-κB2: EMSA oligodeoxynucleotide probe spanning the NF-κB binding site MGMT-κB2 within the MGMT promoter (DNA GGCGGGAACACCCCGCCCCGCCCG; DNA, backbone not given here; further chemistry not fully specified; listed as Homo sapiens) | formation of complexes of a similar size |  |
